Measurements: patent publication US5602101A, “Antithrombotic agents” (priority 1994, dated 1997)

Legend:
Format in all cases: biochemical
human thrombin = biological target: T1, human thrombin (Homo sapiens, UniProt P00734); experiment: Inhibition of amidase activity of thrombin (chromogenic substrate), Kass; conditions: substrate N-benzoyl-Phe-Val-Arg-p-nitroanilide, pH 7.4
T1 construct: purified human thrombin Enzyme Research Laboratories, South Bend, Ind; purchased Enzyme Research Laboratories, South Bend, Ind
Protocol: (§1) The assay is carried out by mixing 50 μl buffer (0.03M Tris, 0.15M NaCl, pH 7.4), 25 μl of human thrombin solution (purified human thrombin Enzyme Research Laboratories, South Bend, Ind.) at 8 NIH units/ml and 25 μl of test compound in a solvent (50% aqueous methanol (v:v)). Then 150 μl of an aqueous solution of the chromogenic substrate (at 0.25 mg/ml) are added and the rates of hydrolysis of the substrate are measured by monitoring the reactions at 405 nm for the release of p-nitroaniline. Standard curves are constructed by plotting free thrombin concentration against hydrolysis rate. The hydrolysis rates observed with test compounds are then converted to "free thrombin" values in the respective assays by use of the standard curves. The bound thrombin (bound to test compound) is calculated by subtracting the amount of free thrombin observed in each assay from the known initial amount of thrombin used in the assay. The amount of free inhibitor in each assay is calculated by subtracting the number of moles of bound thrombin from the number of moles of added inhibitor (test compound).
The Kass value is the hypothetical equilibrium constant for the reaction between thrombin and the test compound (I). [drawing 53]
(§2) Kass is calculated for a range of concentrations of test compounds and the mean value is reported in units of liter per mole.

factor Xa = biological target: T2, factor Xa (Homo sapiens, UniProt P00742); experiment: Serine protease inhibition, factor Xa (chromogenic substrate), Kass; conditions: substrate N-Benzoyl-Ile-Glu-Gly-Arg-p-nitroanilide
T2 construct: Human factors X, Xa, IXa, XIa, and xIIa are purchased from Enzyme Research Laboratories; purchased Enzyme Research Laboratories, South Bend, Ind
Protocol: as §1, §2
(§3) By substantially following the procedures described above for human thrombin, and using other human blood coagulation system serine proteases, and using fibrinolytic system serine proteases, with the appropriate chromogenic substrate, identified below, selectivity of the compounds of the present invention with respect to the coagulation factor serine proteases and to the fibrinolytic serine proteases are evaluated as well as their substantial lack of interference with human plasma clot fibrinolysis.
(§4) Human factors X, Xa, IXa, XIa, and xIIa are purchased from Enzyme Research Laboratories, South Bend, Ind.; human urokinase from Leo Pharmaceuticals, Denmark; and recombinant activated Protein C (aPC) is prepared at Eli Lilly and Co. substantially according to U.S. Pat. No. 4,981,952 incorporated by reference herein in its entirety. Chromogenic substrates: N-Benzoyl-Ile-Glu-Gly-Arg-p-nitroanilide (for factor Xa); N-Cbz-D-Arg-Gly-Arg-p-nitroanilide (for factor IXa assay as the factor Xa substrate) pyroglutamyl-Pro-Arg-p-nitroanilide (for factor XIa and for aPC); H-D-Pro-Phe-Arg-p-nitroanilide (for factor XIIa); and pyroglutamyl-Gly-Arg-p-nitroanilide (for urokinase); are purchased from KabiVitrum, Stockholm, Sweden, or from Midwest Biotech, Fishers, Indiana. Bovine trypsin is purchased from Worthington Biochemicals, Freehold, N.J., and human plasma kallikrein from Kabi Vitrum, Stockholm, Sweden. N-Benzoyl-Phe-Val-Arg-p-nitroanilide, the substrate for human thrombin and for trypsin, is synthesized according to procedures described above for the compounds of the present invention, known methods of peptide coupling from commercially available reactants, or was purchased from Midwest Biotech, Fishers, Ind. Human plasmin is purchased from Boehringer Mannheim, Indianapolis, Ind.; nt-PA is purchased as single chain activity reference from American Diagnostics, Greenwich, Conn.; modified-t-PA6 (mt-PA6) is prepared at Eli Lilly and Company by procedure known in the art (See, Burck, et al., J. Biol. Chem., 265, […] (1990). Plasmin chromogenic substrate H-D-Val-Leu-Lys-p-nitroanilide and tissue plasminegen activator (t-PA) substrate H-D-Ile-Pro-Arg-p-nitroanilide are purchased from Kabi Vitrum, Stockholm, Sweden.

Bovine trypsin = biological target: T3, Bovine trypsin (Bos taurus, UniProt P00760); experiment: Serine protease inhibition, trypsin (chromogenic substrate), Kass; conditions: substrate N-Benzoyl-Phe-Val-Arg-p-nitroanilide
T3 construct: Bovine trypsin is purchased from Worthington Biochemicals, Freehold, N.J; purchased Worthington Biochemicals, Freehold, N.J
T3 sequence (P00760 24-246): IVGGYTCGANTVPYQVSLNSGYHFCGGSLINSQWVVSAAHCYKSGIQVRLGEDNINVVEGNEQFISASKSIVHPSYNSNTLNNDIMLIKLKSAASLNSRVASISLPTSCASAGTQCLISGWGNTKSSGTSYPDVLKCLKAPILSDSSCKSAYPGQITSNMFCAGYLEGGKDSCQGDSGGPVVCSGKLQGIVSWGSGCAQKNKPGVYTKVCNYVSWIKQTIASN
Protocol: as §1, §2, §3, §4

Human plasmin = biological target: T4, Human plasmin (Homo sapiens, UniProt P00747); experiment: Serine protease inhibition, plasmin (chromogenic substrate), Kass; conditions: substrate H-D-Val-Leu-Lys-p-nitroanilide
T4 construct: Human plasmin is purchased from Boehringer Mannheim, Indianapolis, Ind; purchased Boehringer Mannheim, Indianapolis, Ind
Protocol: as §1, §2, §3, §4

[1] = biological target: T5, tissue plasminogen activator (t-PA) (Homo sapiens, UniProt P00750); experiment: Serine protease inhibition, t-PA (chromogenic substrate), Kass; conditions: substrate H-D-Ile-Pro-Arg-p-nitroanilide
T5 construct: purchased American Diagnostics, Greenwich, Conn
Protocol: as §1, §2, §3, §4

Human Plasma [2] = experiment: Anticoagulation in human plasma, thrombin time (TT); conditions: concentration required to double the thrombin time
Protocol: (§5) Dog plasma and rat plasma are obtained from conscious mixed-breed hounds (either sex, Hazelton-LRE, Kalamazoo, Mich., U.S.A.) or from anesthetized male Sprague-Dawley rats (Harlan Sprague-Dawley, Inc., Indianapolis, Ind., U.S.A.) by venipuncture into 3.8 percent citrate. Fibrinogen is prepared from in-date ACD human blood as the fraction I-2 according to previous procedures and specifications. Smith, Biochem. Chem. […] Human fibrinogen is also purchased as 98 percent pure/plasmin free from American Diagnostics, Greenwich, Conn. Coagulation reagents ACTIN, Thromboplastin, and Human plasma are from Baxter Healthcare Corp., Dade Division, Miami, Fla. Bovine thrombin from Parke-Davis (Ann Arbor, Mich.) is used for coagulation assays in plasma. Coagulation assay procedures are as previously described. Smith, et al., Thrombosis Research, 5, 163-174 (1988). A CoAScreener coagulation instrument (American LABor, Inc.) is used for all coagulation assay measurements. The prothrombin time (PT) is measured by adding 0.05 ml saline and 0.05 ml Thromboplastin-C reagent to 0.05 ml test plasma. The activated partial thromboplastin time (APTT) is measured by incubation of 0.05 ml test plasma with 0.05 ml Actin reagent for 120 seconds followed by 0.05 ml CaCl2 (0.02M). […] The compounds of formula I are added to human or animal plasma over a wide range of concentrations to determine prolongation effects on the APTT, PT, and TT assays. Linear extrapolations are performed to estimate the concentrations required to double the clotting time for each assay.

Human Plasma [3] = experiment: Anticoagulation in human plasma, activated partial thromboplastin time (APTT); conditions: concentration required to double the APTT
Protocol: as §5

Human Plasma [4] = experiment: Anticoagulation in human plasma, prothrombin time (PT); conditions: concentration required to double the PT
Protocol: as §5

T4 sequence (P00747 581-810 limits assumed): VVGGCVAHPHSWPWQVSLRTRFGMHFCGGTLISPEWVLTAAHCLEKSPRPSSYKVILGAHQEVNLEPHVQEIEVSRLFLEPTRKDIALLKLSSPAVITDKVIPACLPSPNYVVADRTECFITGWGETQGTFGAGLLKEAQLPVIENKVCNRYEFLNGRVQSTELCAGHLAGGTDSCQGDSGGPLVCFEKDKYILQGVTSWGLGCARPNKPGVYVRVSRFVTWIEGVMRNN
T4 sequence (P00747 97-580 partner limits assumed): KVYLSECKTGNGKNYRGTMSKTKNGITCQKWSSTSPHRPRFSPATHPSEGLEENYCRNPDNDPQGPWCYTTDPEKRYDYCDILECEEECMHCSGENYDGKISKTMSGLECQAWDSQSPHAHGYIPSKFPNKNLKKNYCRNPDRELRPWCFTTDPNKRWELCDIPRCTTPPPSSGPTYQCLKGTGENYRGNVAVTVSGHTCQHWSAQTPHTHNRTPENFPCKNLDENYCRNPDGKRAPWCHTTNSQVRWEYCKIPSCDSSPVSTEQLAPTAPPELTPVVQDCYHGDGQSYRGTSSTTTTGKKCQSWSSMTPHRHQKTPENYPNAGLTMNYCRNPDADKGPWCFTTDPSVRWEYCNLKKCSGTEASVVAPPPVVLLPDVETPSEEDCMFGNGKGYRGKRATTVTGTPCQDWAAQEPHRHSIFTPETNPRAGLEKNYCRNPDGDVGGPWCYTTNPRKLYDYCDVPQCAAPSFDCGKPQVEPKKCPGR
T5 sequence (P00750 36-562): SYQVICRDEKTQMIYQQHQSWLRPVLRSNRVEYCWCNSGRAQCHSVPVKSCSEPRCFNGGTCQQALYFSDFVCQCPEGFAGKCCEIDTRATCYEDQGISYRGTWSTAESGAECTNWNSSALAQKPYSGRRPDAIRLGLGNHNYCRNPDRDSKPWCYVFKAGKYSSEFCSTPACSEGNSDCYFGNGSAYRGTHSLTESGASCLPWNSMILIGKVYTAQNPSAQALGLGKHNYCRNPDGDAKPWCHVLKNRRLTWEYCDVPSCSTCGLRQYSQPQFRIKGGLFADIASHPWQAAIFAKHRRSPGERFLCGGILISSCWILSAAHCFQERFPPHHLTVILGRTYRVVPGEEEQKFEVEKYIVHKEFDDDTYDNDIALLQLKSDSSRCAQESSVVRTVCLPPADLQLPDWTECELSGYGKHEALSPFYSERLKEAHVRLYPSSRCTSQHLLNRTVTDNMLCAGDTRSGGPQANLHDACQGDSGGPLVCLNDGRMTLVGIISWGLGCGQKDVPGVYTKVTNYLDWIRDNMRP
T2 sequence (P00742 235-488 limits assumed): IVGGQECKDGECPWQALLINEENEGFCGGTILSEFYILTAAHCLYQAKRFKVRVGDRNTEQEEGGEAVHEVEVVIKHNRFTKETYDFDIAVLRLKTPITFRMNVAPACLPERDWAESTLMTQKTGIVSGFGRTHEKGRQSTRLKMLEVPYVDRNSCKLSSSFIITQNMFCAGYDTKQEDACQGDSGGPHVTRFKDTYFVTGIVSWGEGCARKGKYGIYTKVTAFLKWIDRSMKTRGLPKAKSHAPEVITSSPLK
T2 sequence (P00742 41-179 partner limits assumed): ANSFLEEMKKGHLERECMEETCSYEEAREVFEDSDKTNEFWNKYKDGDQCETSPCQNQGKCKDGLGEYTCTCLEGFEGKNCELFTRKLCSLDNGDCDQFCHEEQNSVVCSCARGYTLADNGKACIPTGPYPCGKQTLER

SMILES	Enzyme Kass, Human Thrombin (human thrombin) [L/mol × 10^6]	Enzyme Kass, Xa (factor Xa) [L/mol × 10^6]	Enzyme Kass, Trypsin (Bovine trypsin) [L/mol × 10^6]	Enzyme Kass, Plasmin (Human plasmin) [L/mol × 10^6]	Enzyme Kass, t-Pa [1] [L/mol × 10^6]	2 × Clotting time, TT (Human Plasma [2]) [ng/mL]	2 × Clotting time, APTT (Human Plasma [3])	2 × Clotting time, PT (Human Plasma [4])
Cl.NC(N)=NCCCC(C=O)NC(=O)C1CCCN1C(=O)C(Cc1ccccc1)NC(=O)Cc1cccnc1 [Example 4, N-(α-(3-pyridyl)-acetyl)-D-Phe-Pro-Arg-H-HCl]	13	0.067	5.2	0.27	0.22	150	2,300 ng/ML	3,400 ng/ML
Cl.N=C(N)NCCC[C@@H](C=O)NC(=O)[C@@H]1CCCN1C(=O)[C@@H](Cc1ccccc1)NC(=O)C(F)(F)F [Example 25, CF3 CO-D-Phe-Pro-Arg-H.HCl]	26	0.033	15	0.31	0.17	59	1,300 ng/ML	1,800 ng/ML
COCC(=O)N[C@H](Cc1ccccc1)C(=O)N1CCC[C@H]1C(=O)N[C@H](C=O)CCCNC(=N)N.Cl [Example 24, CH3 OCH2 CO-D-Phe-Pro-Arg-H.HCl]	33	0.29	57	3.8	0.30	38	440 ng/mL	1,200 ng/ML
Cl.Cn1c(C(=O)NC(CC2CCCCC2)C(=O)N2CCCC2C(=O)NC(C=O)CCCN=C(N)N)cc2ccccc21 [Example 5, NMI-D-Cha-Pro-Arg-H.HCl]	320	4.6	7.9	25	1.1	110	1,000 ng/ML	2,500 ng/ML
CCOC(=O)N[C@H](CC1CCCCC1)C(=O)N1CCC[C@H]1C(=O)N[C@H](C=O)CCCN=C(N)N.Cl [Example 34, EtOCO-D-Cha-Pro-Arg-H.HCl]	360	8.1	140	26	0.75	48	410 ng/mL	890 ng/mL
Cl.N=C(N)NCCC[C@@H](C=O)NC(=O)[C@@H]1CCCN1C(=O)[C@@H](CC1CCCCC1)NCC(=O)O [Example 36, HOCCH2 -D-Cha-Pro-ArgH.HCl]	556	40.5	–	–	–	9	284 ng/mL	695 ng/mL

The next lines start with results.

Enzyme Kass, Human Thrombin (human thrombin) [L/mol × 10^6]	Enzyme Kass, Xa (factor Xa) [L/mol × 10^6]	Enzyme Kass, Trypsin (Bovine trypsin) [L/mol × 10^6]	Enzyme Kass, Plasmin (Human plasmin) [L/mol × 10^6]	Enzyme Kass, t-Pa [1] [L/mol × 10^6]	SMILES	2 × Clotting time, TT (Human Plasma [2]) [ng/mL]	2 × Clotting time, APTT (Human Plasma [3])	2 × Clotting time, PT (Human Plasma [4])
510	45	160	14	0.34	CCS(=O)(=O)N[C@@H](C(=O)N1CCC[C@H]1C(=O)N[C@H](C=O)CCCNC(=N)N)c1ccccc1.Cl [Example 20, EtSO2 -D-Phg-Pro-Arg-H.HCl]	34	250 ng/mL	880 ng/mL
20	0.064	5.9	0.24	0.26	Cl.N=C(N)NCCC[C@@H](C=O)NC(=O)[C@@H]1CCCN1C(=O)[C@@H](Cc1ccccc1)NC(=O)C1CCCCC1 [Example 27, cyclohexyl-CO-D-Phe-Pro-Arg-H.HCl]	63	1,300 ng/ML	1,800 ng/ML
260	11	200	18	2.7	Cc1noc(C)c1S(=O)(=O)N[C@H](Cc1ccccc1)C(=O)N1CCC[C@H]1C(=O)N[C@H](C=O)CCCNC(=N)N.Cl [Example 16, 3,5-Me-4-isoxazolyl-SO2 -D-Phe-Pro-Arg-H.HCl]	33	430 ng/mL	1,300 ng/ML
68	2.8	52	3.4	0.31	Cl.N=C(N)NCCC[C@@H](C=O)NC(=O)[C@@H]1CCCN1C(=O)[C@@H](Cc1ccccc1)NS(=O)(=O)c1nccs1 [Example 19, 2-Thiazolyl-SO2 -D-Phe-Pro-Arg-H-HCl]	66	810 ng/mL	2,900 ng/ML
695	3.3	–	–	–	Cl.N=C(N)NCCC[C@@H](C=O)NC(=O)[C@@H]1CCCN1C(=O)[C@@H](Cc1ccccc1)NCC(=O)O [Example 35, HOOCCH2 -D-Phe-Pro-ArgH.HCl]	14	723 ng/mL	1129 ng/mL
